Laboratory results taken from paper PMC12186844 (ACS Chemical Neuroscience, 2025).

What was measured:
SNAP-D2SR T398^7.54A = SNAP-D2SR T398^7.54A (Homo sapiens, UniProt P14416, T427A); test: cell membrane [3H]spiperone assay
Description: (§1) Flp-In-CHO cells stably expressing the wild-type or mutant DRs were grown to 90% confluence in 175 cm^2 cell culture flasks. The cells were harvested in PBS containing 2 mM EDTA and centrifuged at 300g for 3 min. The resulting pellet was resuspended in ice-cold assay buffer (20 mM HEPES, 100 mM NaCl, 6 mM MgCl2, 1 mM EGTA, and 1 mM EDTA, pH 7.4), and the centrifugation step was repeated. The intact cell pellet was then resuspended in assay buffer and homogenized using a Polytron homogenizer. After centrifugation (1000g, 10 min), the pellet was discarded, and the supernatant was recentrifuged at 30,000g for 1 h at 4 °C using a Sorvall Evolution RC ultracentrifuge (Thermo Scientific). The resulting pellet was resuspended in assay buffer and stored in 250 μL aliquots at −80 °C. Membrane protein concentration was determined using a Pierce’s BCA protein assay kit (Thermo Fisher, Melbourne).
(§2) [^3H]­Spiperone binding experiments using cell membranes were conducted in a 200 μL reaction volume in assay buffer (20 mM HEPES, 100 mM NaCl, 6 mM MgCl2, 1 mM EGTA, and 1 mM EDTA, pH 7.4) containing 100 μM GppNHp and 0.1% ascorbic acid in 96-well plates. […] In all cases, nonspecific binding was determined in the presence of 10 μM haloperidol. […] Filter bound radioactivity was detected as a chemiluminescence after the addition of MicroScint-20 (Revvity) in a MicroBeta plate counter (Revvity). […]

SNAP-D2SR E95^2.65A = SNAP-D2SR E95^2.65A (Homo sapiens, UniProt P14416, E95A); test: functional cAMP assay, BRET biosensor; assay type: cell-based
Description: (§3) Flp-In-CHO cells stably coexpressing the CAMYEL biosensor and DRs were plated into white 96-well CulturPlates (Revvity) and grown overnight. The cells were equilibrated in Hank’s balanced salt solution (HBSS) at 37 °C (or 25 °C when indicated) before starting the experiment. The cells were costimulated with the agonists and 10 μM forskolin for the indicated time frames when the BRET readings were captured. Coelenterazine (Nanolight Technology, AZ) was added at a final concentration of 5 μM at least 3 min prior to measurement. […] Net BRET was determined by subtraction of the vehicle control coadded with 10 μM forskolin. For phenoxybenzamine alkylation experiments, the cells were treated with 0.1, 0.3, or 1 μM phenoxybenzamine (Sigma-Aldrich) diluted in HBSS and equilibrated at 37 °C for 30 min prior to the commencement of the assay.
(§4) Dose–response curves were fitted using the following three-parameter equation: response=bottom+top−bottom/1+10^(logEC50−log[A]) 5 where top and bottom represent the maximal and minimal asymptote of the dose response curve, [A] is the molar concentration of the agonist, and EC50 is the molar concentration of the agonist required to give a response half-way between bottom and top.

SNAP-D2SR W384^7.40A = SNAP-D2SR W384^7.40A (Homo sapiens, UniProt P14416, W413A); test: functional cAMP assay, BRET biosensor; assay type: cell-based
Description: as §3, §4

SNAP-D2SR D80^2.50A = SNAP-D2SR D80^2.50A (Homo sapiens, UniProt P14416, D80A); test: functional cAMP assay, BRET biosensor; assay type: cell-based
Description: Flp-In-CHO cells stably coexpressing the CAMYEL biosensor and DRs were plated into white 96-well CulturPlates (Revvity) and grown overnight. The cells were equilibrated in Hank’s balanced salt solution (HBSS) at 37 °C (or 25 °C when indicated) before starting the experiment. The cells were costimulated with the agonists and 10 μM forskolin for the indicated time frames when the BRET readings were captured. Coelenterazine (Nanolight Technology, AZ) was added at a final concentration of 5 μM at least 3 min prior to measurement. […] Net BRET was determined by subtraction of the vehicle control coadded with 10 μM forskolin.
as §4

SNAP-D2SR F404^8.50A = SNAP-D2SR F404^8.50A (Homo sapiens, UniProt P14416, F433A); test: cell membrane [3H]spiperone assay
Sequence of SNAP-D2SR F404^8.50A (P14416 1-414 isoform P14416-2 F404A): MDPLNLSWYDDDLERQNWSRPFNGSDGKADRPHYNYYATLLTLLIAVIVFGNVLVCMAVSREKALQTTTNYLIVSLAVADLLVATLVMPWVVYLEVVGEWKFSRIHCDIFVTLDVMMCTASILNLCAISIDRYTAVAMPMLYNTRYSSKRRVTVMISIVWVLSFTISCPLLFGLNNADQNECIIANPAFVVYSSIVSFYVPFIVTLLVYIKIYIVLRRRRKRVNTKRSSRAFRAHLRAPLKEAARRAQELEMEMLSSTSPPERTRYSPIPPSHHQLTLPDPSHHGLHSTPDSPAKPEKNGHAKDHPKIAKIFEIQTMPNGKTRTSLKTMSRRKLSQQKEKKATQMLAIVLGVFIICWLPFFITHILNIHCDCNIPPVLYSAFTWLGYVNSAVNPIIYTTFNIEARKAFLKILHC
Description: as §1, §2

Sequence of SNAP-D2SR D80^2.50A (P14416 1-414 isoform P14416-2 D80A): as the sequence (P14416 1-414 isoform P14416-2 F404A) above, with D80A, A404F counted along it
Sequence of SNAP-D2SR E95^2.65A (P14416 1-414 isoform P14416-2 E95A): as the sequence (P14416 1-414 isoform P14416-2 F404A) above, with E95A, A404F counted along it
Sequence of SNAP-D2SR W384^7.40A (P14416 1-414 isoform P14416-2 W384A): as the sequence (P14416 1-414 isoform P14416-2 F404A) above, with W384A, A404F counted along it
Sequence of SNAP-D2SR T398^7.54A (P14416 1-414 isoform P14416-2 T398A): as the sequence (P14416 1-414 isoform P14416-2 F404A) above, with T398A, A404F counted along it

Q: What does the source list for `COc1cc(CO)c(F)cc1C(=O)n1ccc2c(F)cccc21` [D2 PAM2, [5-fluoro-4-(hydroxymethyl)-2-methoxyphenyl]-(4-fluoro-1H-indol-1-yl)methanone]?
A: fold shift + 10 μM PAM (SNAP-D2SR T398^7.54A; shift of DA IC50): 1 fold; ΔpIC50 + 10 μM PAM (SNAP-D2SR T398^7.54A; shift of DA pIC50): –0.01 ± 0.05; Kb (SNAP-D2SR E95^2.65A): 3.2 µM; Logτ (SNAP-D2SR E95^2.65A): -0.46 ± 0.07; pKB (SNAP-D2SR E95^2.65A): 5.49 ± 0.12; τ (SNAP-D2SR E95^2.65A): 0.35; Logαβ (SNAP-D2SR E95^2.65A; with DA): 1.07 ± 0.10; αβ (SNAP-D2SR E95^2.65A; with DA): 11.7; Kb (SNAP-D2SR W384^7.40A): 13.8 µM; Logτ (SNAP-D2SR W384^7.40A): -0.24 ± 0.08; pKB (SNAP-D2SR W384^7.40A): 4.86 ± 0.24; τ (SNAP-D2SR W384^7.40A): 0.57; Logαβ (SNAP-D2SR W384^7.40A; with DA): 1.04 ± 0.15; αβ (SNAP-D2SR W384^7.40A; with DA): 11.0; D2 PAM2 log τ (SNAP-D2SR D80^2.50A): –0.78 ± 0.25; D2 PAM2 pKB (SNAP-D2SR D80^2.50A): 4.82 ± 0.18; D2 PAM2 τ (SNAP-D2SR D80^2.50A): 0.17; D2 PAM2 log αβ (SNAP-D2SR D80^2.50A; with DA): 0.96 ± 0.25; D2 PAM2 αβ (SNAP-D2SR D80^2.50A; with DA): 9.0; fold shift + 10 μM PAM (SNAP-D2SR F404^8.50A; shift of DA IC50): 1.5 fold; ΔpIC50 + 10 μM PAM (SNAP-D2SR F404^8.50A; shift of DA pIC50): 0.19 ± 0.18
